These results are taken from patent US9434743B2, “Indazole derivatives” (TAKEDA PHARMACEUTICAL COMPANY LIMITED, priority 2012, dated 2016).

The structures appear in SMILES notation.

The target of experiment [1] is T1, human MetAP2 enzyme (Homo sapiens, UniProt P50579). In words: MetAP2 enzyme assay, enzyme complexed with cobalt ions. As to conditions: MetAP2 Co pIC50, MetAP2 enzyme complexed with cobalt ions; Met-AMC substrate at Km.
Experiment [2] addresses T1, human MetAP2 enzyme. Kind of experiment: MetAP2 enzyme assay, enzyme complexed with manganese ions. Conditions: MetAP2 Mn pIC50, MetAP2 enzyme complexed with manganese ions; Met-AMC substrate at Km.
Description: DNA encoding the full-length sequence of human MetAP2 enzyme is amplified by PCR and cloned into a pFastBac expression vector (Invitrogen). Recombinant baculovirus incorporating the MetAP2 construct is generated by transposition using the Bac-to-Bac system (Invitrogen). The expression of recombinant protein is carried out by infection of Spodoptera frugiperda Sf9 cells (Invitrogen) in 5 L Wave Bioreactors (Wave Biotech). Recombinant protein is isolated from cellular extracts by binding to an SP Hitrap Fast Flow or SP Sepharose (Sigma) column, and the protein is eluted using a NaCl gradient. Partially purified extracts of MetAP2 are further purified by an AKTA FPLC over a Superdex-200 column (GE). The purity of MetAP2 protein is determined on denaturing SDS-PAGE gel.
The results for each well are expressed as percent inhibition and calculated using the equation:

T1 sequence (P50579 whole entry): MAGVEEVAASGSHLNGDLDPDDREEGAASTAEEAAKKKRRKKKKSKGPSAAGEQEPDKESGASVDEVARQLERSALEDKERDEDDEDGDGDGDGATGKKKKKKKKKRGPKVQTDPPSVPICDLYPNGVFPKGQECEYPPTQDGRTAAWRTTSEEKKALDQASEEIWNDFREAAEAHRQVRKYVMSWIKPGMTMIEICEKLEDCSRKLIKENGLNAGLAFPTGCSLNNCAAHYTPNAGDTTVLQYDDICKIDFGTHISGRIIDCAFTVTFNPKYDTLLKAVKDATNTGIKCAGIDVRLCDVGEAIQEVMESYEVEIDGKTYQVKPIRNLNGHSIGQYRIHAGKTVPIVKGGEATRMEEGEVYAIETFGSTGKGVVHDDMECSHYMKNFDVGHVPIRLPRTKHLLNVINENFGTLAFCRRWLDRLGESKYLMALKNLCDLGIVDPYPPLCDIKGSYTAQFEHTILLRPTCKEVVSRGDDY

Regarding `FC(F)(F)c1cc(-c2cncc3ccccc23)c2cn[nH]c2c1` [Example 111, 4-(6-(trifluoromethyl)-1H-indazol-4-yl)isoquinoline], the results for the IC50 in experiment [1] and in experiment [2] were 50.1 nM and 15.8 nM, respectively. For `COc1ncc(-c2cc(C(F)(F)F)cc3[nH]ncc23)cc1C(=O)NCCO` [Example 285, N-(2-hydroxyethyl)-2-methoxy-5-(6-(trifluoromethyl)-1H-indazol-4-yl)nicotinamide] the same measures were 50.1 nM and 3.98 nM. The matching figures for `Cn1cc(-c2cc(C(F)(F)F)cc3[nH]ncc23)c(=O)[nH]c1=O` [Example 278, 1-methyl-5-(6-(trifluoromethyl)-1H-indazol-4-yl)pyrimidine-2,4(1H,3H)-dione]: 631 nM and 10 nM. The matching figures for `CNC(=O)c1ccc(F)cc1-c1cc(C(F)(F)F)cc2[nH]ncc12` [Example 102, 4-fluoro-N-methyl-2-(6-(trifluoromethyl)-1H-indazol-4-yl)benzamide]: 631 nM and 79.4 nM. For `FC(F)(F)c1cc(-c2cnc3ccnn3c2)c2cn[nH]c2c1` [Example 275, 6-(6-(trifluoromethyl)-1H-indazol-4-yl)pyrazolo[1,5-a]pyrimidine], the concentration for half-maximal inhibition (IC50) (usually the concentration that inhibits the measured activity by half) was 126 nM in experiment [1] and 5.01 nM in experiment [2]. Take `Cc1c(-c2cc(C(F)(F)F)cc3[nH]ncc23)ccc2ncnn12` [Example 393, 5-methyl-6-(6-(trifluoromethyl)-1H-indazol-4-yl)-[1,2,4]triazolo[1,5-a]pyridine]: the IC50 in experiment [1] was 50.1 nM; in experiment [2], 6.31 nM. In the case of `COc1ccc(C(=O)N(C)C)cc1-c1cc(C(F)(F)F)cc2[nH]ncc12` [Example 272, 4-methoxy-N,N-dimethyl-3-(6-(trifluoromethyl)-1H-indazol-4-yl)benzamide], the IC50 in experiment [1] was 39.8 nM; in experiment [2], 10 nM. Turning to `CS(=O)(=O)NCc1ccc(-c2cc(C(F)(F)F)cc3[nH]ncc23)cc1` [Example 95, N-(4-(6-(trifluoromethyl)-1H-indazol-4-yl)benzyl)methanesulfonamide], the values for the IC50 in experiment [1] and in experiment [2] were 20 nM and 3.16 nM, respectively.

With `CNC(=O)Cn1c(=O)c(-c2cc(C(F)(F)F)cc3[nH]ncc23)cn(C)c1=O` [Example 301, N-methyl-2-(3-methyl-2,6-dioxo-5-(6-(trifluoromethyl)-1H-indazol-4-yl)-2,3-dihydropyrimidin-1(6H)-yl)acetamide], the half-maximal inhibitory concentration (IC50) in experiment [1] is 1000 nM; in experiment [2], 15.8 nM. The matching figures for `CCOCn1ccnc1-c1cc(C(F)(F)F)cc2[nH]ncc12` [Example 145, 4-(1-(ethoxymethyl)-1H-imidazol-2-yl)-6-(trifluoromethyl)-1H-indazole]: 3980 nM and 631 nM.

With `CN(C)C(=O)c1c[nH]c(=O)c(-c2cc(C(F)(F)F)cc3[nH]ncc23)c1` [Example 334, N,N-dimethyl-6-oxo-5-(6-(trifluoromethyl)-1H-indazol-4-yl)-1,6-dihydropyridine-3-carboxamide], the values for the IC50 in experiment [1] and in experiment [2] were 794 nM and 20 nM, respectively. For `Cn1cc(-c2cc(C(F)(F)F)cc3[nH]ncc23)c(=O)n(Cc2ccc(F)cc2)c1=O` [Example 311, 3-(4-fluorobenzyl)-1-methyl-5-(6-(trifluoromethyl)-1H-indazol-4-yl)pyrimidine-2,4(1H,3H)-dione] the same measures were 1000 nM and 63.1 nM. The matching figures for `COc1nc(C(=O)N2CC(O)C2)ccc1-c1cc(C(F)(F)F)cc2[nH]ncc12` [Example 395, (3-hydroxyazetidin-1-yl)(6-methoxy-5-(6-(trifluoromethyl)-1H-indazol-4-yl)pyridin-2-yl)methanone]: 31.6 nM and 6.31 nM. The matching figures for `O=C1Cc2ccc(-c3cc(C(F)(F)F)cc4[nH]ncc34)cc2N1` [Example 239, 6-(6-(trifluoromethyl)-1H-indazol-4-yl)indolin-2-one]: 15.8 nM and 5.01 nM. For `O=C1Cc2cc(-c3cc(C(F)(F)F)cc4[nH]ncc34)ccc2N1` [Example 235, 5-(6-(trifluoromethyl)-1H-indazol-4-yl)indolin-2-one], the IC50 was 12.6 nM in experiment [1] and 3.98 nM in experiment [2]. For `Cn1cc(C(=O)N2CCOCC2)cc(-c2cc(C(F)(F)F)cc3[nH]ncc23)c1=O` [Example 314, 1-methyl-5-(morpholine-4-carbonyl)-3-(6-(trifluoromethyl)-1H-indazol-4-yl)pyridin-2(1H)-one] the same measures were 631 nM and 20 nM. The matching figures for `Cc1c(-c2cc(C(F)(F)F)cc3[nH]ncc23)cnn1C` [Example 79, 4-(1,5-dimethyl-1H-pyrazol-4-yl)-6-(trifluoromethyl)-1H-indazole]: 25.1 nM and 10 nM. The matching figures for `COc1ccc(CO)cc1-c1cc(C(F)(F)F)cc2[nH]ncc12` [Example 185, (4-methoxy-3-(6-(trifluoromethyl)-1H-indazol-4-yl)phenyl)methanol]: 15.8 nM and 3.98 nM. As for `O=C(NCCO)c1c[nH]c(=O)c(-c2cc(C(F)(F)F)cc3[nH]ncc23)c1` [Example 299, N-(2-hydroxyethyl)-6-oxo-5-(6-(trifluoromethyl)-1H-indazol-4-yl)-1,6-dihydropyridine-3-carboxamide], the IC50 in experiment [1] was 398 nM; in experiment [2] it was 7.94 nM.

In the case of `Cc1ccc(C(=O)N2CC(O)C2)cc1-c1cc(C(F)(F)F)cc2[nH]ncc12` [Example 369, (3-hydroxyazetidin-1-yl)(4-methyl-3-(6-(trifluoromethyl)-1H-indazol-4-yl)phenyl)methanone], the IC50 was 31.6 nM in experiment [1] and 10 nM in experiment [2]. Turning to `Cn1cc(-c2cc(C(F)(F)F)cc3[nH]ncc23)c(=O)n(CC(=O)N2CCOCC2)c1=O` [Example 310, 1-methyl-3-(2-morpholino-2-oxoethyl)-5-(6-(trifluoromethyl)-1H-indazol-4-yl)pyrimidine-2,4(1H,3H)-dione], the IC50 was 1000 nM in experiment [1] and 20 nM in experiment [2]. The matching figures for `COc1nc(C#N)ccc1-c1cc(C(F)(F)F)cc2[nH]ncc12` [Example 396, 6-methoxy-5-(6-(trifluoromethyl)-1H-indazol-4-yl)picolinonitrile]: 126 nM and 12.6 nM. The matching figures for `FC(F)(F)c1cc(-c2cnc(N3CCOCC3)nc2)c2cn[nH]c2c1` [Example 118, 4-(5-(6-(trifluoromethyl)-1H-indazol-4-yl)pyrimidin-2-yl)morpholine]: 39.8 nM and 6.31 nM. In the case of `COc1ccc(-c2cc(C(F)(F)F)cc3[nH]ncc23)c(C)n1` [Example 249, 4-(6-methoxy-2-methylpyridin-3-yl)-6-(trifluoromethyl)-1H-indazole], the IC50 in experiment [1] is 79.4 nM; in experiment [2], 12.6 nM. For `COc1nc(C(N)=O)ccc1-c1cc(C(F)(F)F)cc2[nH]ncc12` [Example 391, 6-methoxy-5-(6-(trifluoromethyl)-1H-indazol-4-yl)picolinamide] the same measures were 39.8 nM and 5.01 nM.

As for `NS(=O)(=O)c1ccc(-c2cc(C(F)(F)F)cc3[nH]ncc23)c(Cl)c1` [Example 351, 3-chloro-4-(6-(trifluoromethyl)-1H-indazol-4-yl)benzenesulfonamide], the IC50 was 39.8 nM in experiment [1] and 12.6 nM in experiment [2]. As for `NC(=O)c1ccc(F)c(-c2cc(C(F)(F)F)cc3[nH]ncc23)c1` [Example 326, 4-fluoro-3-(6-(trifluoromethyl)-1H-indazol-4-yl)benzamide], the concentration for half-maximal inhibition (IC50) in experiment [1] is 31.6 nM; in experiment [2] it was 12.6 nM.

Take `CS(=O)(=O)Nc1ccccc1-c1cc(C(F)(F)F)cc2[nH]ncc12` [Example 44, N-(2-(6-(trifluoromethyl)-1H-indazol-4-yl)phenyl)methanesulfonamide]: the values for the IC50 in experiment [1] and in experiment [2] were 50.1 nM and 5.01 nM, respectively. For `CNc1ncc(-c2cc(C(F)(F)F)cc3[nH]ncc23)cn1` [Example 196, N-methyl-5-(6-(trifluoromethyl)-1H-indazol-4-yl)pyrimidin-2-amine] the same measures were 63.1 nM and 6.31 nM. With `Fc1cnc2[nH]ccc2c1-c1cc(C(F)(F)F)cc2[nH]ncc12` [Example 66, 4-(5-fluoro-1H-pyrrolo[2,3-b]pyridin-4-yl)-6-(trifluoromethyl)-1H-indazole], the IC50 in experiment [1] was 79.4 nM; in experiment [2], 15.8 nM. For `O=C1Cc2cccc(-c3cc(C(F)(F)F)cc4[nH]ncc34)c2N1` [Example 136, 7-(6-(trifluoromethyl)-1H-indazol-4-yl)indolin-2-one] the same measures were 158 nM and 12.6 nM.

With `NC(=O)c1cc(F)ccc1-c1cc(C(F)(F)F)cc2[nH]ncc12` [Example 203, 5-fluoro-2-(6-(trifluoromethyl)-1H-indazol-4-yl)benzamide], the half-inhibitory concentration (IC50) is 3980 nM in experiment [1] and 79.4 nM in experiment [2]. Regarding `Cc1nn(C)c2cc(-c3cc(C(F)(F)F)cc4[nH]ncc34)ccc12` [Example 68, 1′,3′-dimethyl-6-(trifluoromethyl)-1H,1′H-4,6′-biindazole], the IC50 in experiment [1] is 25.1 nM.

Take `Cc1c(-c2cc(C(F)(F)F)cc3[nH]ncc23)cnn1-c1ccccc1` [Example 71, 4-(5-methyl-1-phenyl-1H-pyrazol-4-yl)-6-(trifluoromethyl)-1H-indazole]: in experiment [1], the IC50 was 100 nM. Still for that read-out and setting: next, `Cc1c(-c2cc(C(F)(F)F)cc3[nH]ncc23)cnn1-c1ccccc1` [Example 70, 4-(5-methyl-1-phenyl-1H-pyrazol-4-yl)-6-(trifluoromethyl)-1H-indazole]: 39.8 nM. Still for that read-out and setting: with `Cc1nn(C)c2cc(-c3cc(C(F)(F)F)cc4[nH]ncc34)ccc12` [Example 67, 1′,3′-dimethyl-6-(trifluoromethyl)-1H,1′H-4,6′-biindazole] the figure was 20 nM.
